Data set [1] has as its system rBet v 1 specific IgE in sera from birch pollen allergic patients. Briefly: Competition ELISA for rBet v 1 specific human IgE. The conditions noted are these: read-out: EC50, inhibition of serum IgE binding to rBet v 1; sera from 6 birch pollen allergic patients (1:5 to 1:10) incubated 1 h with tenfold dilutions of competitor starting at 10^-5 M; rBet v 1 coated plates; '>' = no competitive activity up to this concentration. How it is done:
Successively and with washings between steps, plates were incubated 1 h at RT with biotinylated mouse anti-huIgE (Pharmingen, 5 μg/ml, 1 h at RT), Streptavidin-HRP or -alkaline phosphatase (BD, 1:1000 or 1:8000, respectively, 30 min at RT) and TMB (BD OptEIA, ) or 4-NPP. OD were read at 450 nm, 630 nm and 405 nm, respectively. Inhibition of IgE binding to Betv 1 was calculated as: (OD with competitor minus ODmin)/(OD without competitor minus ODmin) × 100, where ODmin was determined in wells without serum.

The test system of data set [2] is volunteers allergic to birch pollen. The data set can be described thus: Skin prick testing of birch pollen sensitive volunteers (AN002 phase I clinical trial). Particulars: 20 volunteers; for skin prick test positive reactions: even at a 10 μM concentration.
Description: (§1) The AN002 phase I clinical trial was a single center, open and controlled study conducted at the Centre Hospitalier Universitaire Vaudois (CHUV) in Lausanne. Volunteers (18–45 years) with at least one season history of birch pollen rhinoconjunctivitis or asthma were recruited outside of the birch pollen season. […] The primary objective of the study was to determine the reactogenicity of selected COPs by skin prick tests.
(§2) Individual T1 to T5 COPs, AllerT and T4-T5 mix were evaluated in vivo by skin prick tests following EAACI guidelines [31].
Data set [3] shares this test system. Particulars: human, in vivo.
Description: as §1, §2
The next data set has as its system RBL-2H3 cells. The data set can be described thus: Degranulation assay (beta-hexosaminidase release) on rat basophil line RBL-2H3 loaded with sera from rBet v 1-sensitized mice. In kind it is cell-based. The procedure: Degranulation assay was performed as previously described. RBL-2H3 cells were plated in 96-well tissue culture plates (4×10^4 cells/well) overnight. Passive sensitization of RBL-2H3 cells was carried out with sera from rBet v 1-sensitized mice at a final dilution of 1:30 for 2 h. Unbound antibodies were removed by washing the cell layer twice in Hanks’ balanced salt solution (Sigma-Aldrich, St-Louis, MO, USA). […] The reaction was stopped by addition of 100 μl glycine buffer (0.2M glycine, 0.2M NaCl, pH 10.7) and optical densities (OD) measured at 405 nm.

In data set [4] the test system is RBL703/21 cells (RBL transfected with human FcϵRI). Briefly: Degranulation assay (beta-hexosaminidase release) on humanised basophil cell line RBL703/21. In kind it is cell-based, rat. The conditions noted are these: RBL703/21 incubated overnight with sera from ten patients (ImmunoCAP classes 4 to 6); 1 h 37°C. How it is done:
The assay was adapted from Ladics et al. and Blanc et al.. RBL cells transfected with human FcϵRI (RBL703/21, kind gift of Dr L. Vogel, Paul-Ehrlich Institute, Germany) were plated at 10^5 cells/well in medium (MEM containing glutamine and penicillin/streptomycin) and incubated overnight with sera from subjects with class 4, 5 and 6 IgE levels to birch pollen extract as determined by ImmunoCAP (Phadia, Uppsala, Sweden). Human serum was diluted 1/2 with 4M glucose and incubated for 45 min at 56°C, centrifuged and diluted 1/5 with MEM medium before addition to RBL703/21 cells. […] Supernatants (30 μl) were incubated in duplicates with 50 μl of substrate solution (1.3 mg/ml p-nitrophenyl-b-D-2-acetamido-2-deoxyglucopyranozide from Sigma in 0.1 M citrate pH 4.5) for 1 hour at 37°C. Reaction was stopped by the addition of 100 μl of 0.2 M glycin (pH 10.7). OD was measured at 405 nm (reference filter at 620 nm). β-hexosaminidase release was calculated using the following formula: (OD sample-ODbuffer) / (ODanti-IgE-ODbuffer) × 100.

Setting [5] is: dilution 1:1 of the concentration given (COPs and mixes 10 μM, rBet v 1 1 μM, birch 100’000 SQ), EAACI guidelines.
Setting [6] is: dilution 1:1 of the concentration given in the row (10 μM).
Where [7] appears, read: dilution 1:100 of the concentration given.

Where two headings read alike, the source gives them in different places. Ends that are not written are not given here. Bounds are passed on as bounds.

The term EC50 denotes the concentration at which the effect is half-maximal. With “NGGPGTIKKISFPEGFPFKYVKDRVDEVDHTNFKYNYSVIEGGPIGDTLEKISNEIKIVATPDGGSILKIS [T2]”, the EC50 in data set [1] is over 10 µM. For the same molecule, the “Positive skin reactions (≥3 mm wheal and flare present), number of volunteers” value (shortened to “Positive skin reactions”) in data set [2] (setting [5]), in data set [2] (dilution 1:10) and in data set [2] (setting [7]) was 0 in each case. Further, the “0 mm <Skin reaction < 3 mm (sub-threshold), number of volunteers” value (“0 mm <Skin reaction < 3 mm” below) in data set [2] (setting [6]), in data set [2] (dilution 1:10) and in data set [2] (setting [7]) was 0 each time. The “skin prick test positive reactions” value in data set [2] is reported as “unable to elicit skin prick test positive reactions”.

As for “GVFNYETETTSVIPAARLFKAFILDGDNLFPKVAPQAISSVENIEGNGG [T1]”, in data set [1], the concentration for a half-maximal effect (EC50) is over 10 µM. The “Positive skin reactions” value in data set [2] (setting [5]), in data set [2] (dilution 1:10) and in data set [2] (setting [7]) was 0 throughout. The “0 mm <Skin reaction < 3 mm” value in data set [2] (dilution 1:10) and in data set [2] (setting [7]) was 0 throughout. In data set [2], the “skin prick test positive reactions” value is given as “unable to elicit skin prick test positive reactions”.

For “GVFNYETETTSVIPAARLFKAFILDGDNLFPKVAPQAISSVENIEGNGGPGTIKKISFPEGFPFKYVKDRVDEVDHTNFKYNYS [T4]”, the EC50 in data set [1] is over 10 µM. In addition, the “Positive skin reactions” value in data set [2] (setting [5]), in data set [2] (dilution 1:10) and in data set [2] (setting [7]) was 0 throughout. Besides, the “0 mm <Skin reaction < 3 mm” value in data set [2] (setting [6]) came out at 0; in data set [2] (dilution 1:10), 0; in data set [2] (setting [7]), 1.

In the case of “VATPDGGSILKISNKYHTKGDHEVKAEQVKASKEMGETLLRAVESYLLAHSDAYN [T3]”, the EC50 in data set [1] was over 10 µM. Also, the “Positive skin reactions” value in data set [3] came out at 0.

B1: rBet v 1: recombinant major birch pollen allergen Bet v 1 (BIOMAY, Vienna, Austria) (protein, UniProt P15494 2-160, looked up)
Major pollen allergen Bet v …: GVFNYETETTSVIPAARLFKAFILDGDNLFPKVAPQAISSVENIEGNGGPGTIKKISFPEGFPFKYVKDRVDEVDHTNFKYNYSVIEGGPIGDTLEKISNEIKIVATPDGGSILKISNKYHTKGDHEVKAEQVKASKEMGETLLRAVESYLLAHSDAYN
For the molecule B1, the “optimal rBet v 1 concentration for hexosaminidase release” value in the data set with RBL-2H3 cells (RBL-2H3 loaded with sera from rBet v 1-sensitized mice, serial concentrations) is recorded as 0.57 nM. Besides, the hexosaminidase release result in the data set with RBL-2H3 cells (RBL-2H3 primed with sera from Bet v 1-sensitized mice (1:30), stimulation 1 h 37°C, COPs and AllerT at 5.7 nM (n=10) and 57 nM (n=3), OD 405 nm) is listed as “accumulated significantly”. The “positive skin prick reactions, share of patients” value in data set [2] (allergen concentration lowered by 10 fold (birch 10’000 SQ, rBet v 1 0.1 μM)) was 80%. Further, the figures for the “Positive skin reactions” value in data set [2] (dilution 1:10) and in data set [2] (setting [7]) were 16 and 2, respectively. Moreover, the “dose at which maximal degranulation response was reached” value in data set [4] was 10^-9 M.

B2: T5: Bet v 1-derived synthetic contiguous overlapping peptide, aa 65-160 (peptide, UniProt P15494 65-160, looked up, fragment)
chain: FKYVKDRVDEVDHTNFKYNYSVIEGGPIGDTLEKISNEIKIVATPDGGSILKISNKYHTKGDHEVKAEQVKASKEMGETLLRAVESYLLAHSDAYN
Turning to B2, the EC50 in data set [1] is over 10 µM. The “Positive skin reactions” value in data set [2] (setting [5]), in data set [2] (dilution 1:10) and in data set [2] (setting [7]) was 0 in each case. The “0 mm <Skin reaction < 3 mm” value in data set [2] (dilution 1:10) and in data set [2] (setting [7]) was 0 in each case.

These data come from PMC3672070, “Novel birch pollen specific immunotherapy formulation based on contiguous overlapping peptides” (Clinical and Translational Allergy, 2013).
